In patent US20220265625A1, “COMPOSITIONS AND METHODS USING TRIGONELLINE AND MINERALS FOR PREVENTING OR TREATING CONDITIONS OR DISORDERS IN SKELETAL MUSCLE” (SOCIETE DES PRODUITS NESTLE S.A., priority 2019, published 2022):

Tests used:
Human primary myoblasts = assay: NAD+ colorimetric quantification in differentiated human primary myoblasts; format: cell-based; conditions: 16h, different doses
Description: After one day, the differentiation is induced by a medium change for 4 days. Cells were treated with synthetic trigonelline monohydrate (FIG. 4A) or with Fenugreek seed extract enriched in trigonelline containing 40.45% trigonelline (FIG. 4B) for 16h at difference doses. NAD+was measured using colorimetric NAD+quantification assay (Biovision NAD+/NADH Quantitation Colorimetric Kit #k337-100).

C57BL/6JRj male mice = assay: Liver NAD+ after oral gavage in mice; format: in vivo; conditions: equimolar of 300mg/kg trigonelline, 120 minutes
Description: 10 weeks C57BL/6JRj male mice received trigonelline (sigma #T5509) or fenugreek seed extract enriched in trigonelline (40.45% trigonelline) by oral gavage (equimolar of 300mg/kg trigonelline, n=8/group). After 120 minutes treatment, the liver was harvested and flash frozen in liquid nitrogen. NAD+was measured in liver using an enzymatic method adapted from Dall, M., et al., Mol Cell Endocrinol, 2018. 473: p. 245-256.

[1] = tested on: Human Skeletal Muscle Myotubes (HSMM); conditions: 6h
Description: Human primary myoblasts from two different donors were seeded in 6 well plates at a density of 200′000 cells per well in skeletal muscle growth medium (SKM-M, AMSbio). After one day, the differentiation was induced by a medium change for 4 days using differentiation culture medium
(Gibco No. 31330-028). Cells were treated with isotopically labelled trigonelline (^13C carbonyl; 3^2H on methyl) for 6h.
Cell extracts were separated on a Vanquish UHPLC +focused LC system (Thermo Scientific) with a hydrophilic liquid chromatography (HILIC) iHILIC-Fusion(P) column (Hilicon) carrying the dimensions 150 x 2.1 mm, 5 pm and a guard column (iHILIC-fusion(P), Hilicon) in front. The separation of metabolites was achieved by applying a linear solvent gradient in normal phase at 0.25 mL/min flow rate and 35° C. of temperature. As mobile phase, solvent A was water with 10 mM ammonium acetate and 0.04% (v/v) ammonium hydroxide, pH ˜9.3, and solvent B was acetonitrile.
The eluting metabolites were analyzed with an Orbitrap Fusion Lumos mass spectrometer (Thermo Scientific) with a heated electrospray ionization (H-ESI) source in positive and negative mode at a resolution of 60,000 at m/z of 200. Instrument control and data analysis were conducted using Xcalibur (Thermo Scientific).

C. elegans [2] = conditions: 1mM, chronic exposure from Day 1 adulthood
Description: Worm lifespan tests were performed using about 100 animals per condition and scored manually every other day. Trigonelline treatment and experimental measurements were started at Day 1 of wild type N2 worm adulthood, in a regimen of chronic exposure till experiments termination.

C. elegans [3] = conditions: 1 mM
Description: C. elegans mobility test was performed using the Movement Tracker software (Mouchiroud, L. et al. Curr Protoc Neurosci 77, 8.37.1-8.37.21 (2016)). The experiments were repeated at least twice. Trigonelline treatment and experimental measurements were started at Day 1 of wild type N2 worm adulthood, in a regimen of chronic exposure till experiments termination.

C. elegans [4] = conditions: 1 mM, day 8 and day 11 old worms
Description: 45 to 60 worms per condition were manually scored for mobility after poking. Worms that were unable to respond to any repeated stimulation were scored as dead. […] Trigonelline treatment and experimental measurements were started at Day 1 of wild type N2 worm adulthood, in a regimen of chronic exposure til experiments termination.

[5] = tested on: RW1596 (myo-3p::GFP) worms; conditions: 1mM trigonelline chloride, 11 day old worms
Description: RW1596 (myo-3p::GFP) worms were collected at Day 1 (young adults) and at Day 11 (aged animals) for muscle integrity assessment. Worms were immobilized with tetramisole and analyzed by confocal microscopy, to assess the muscle fibers morphology shown by GFP fluorescence imaging. Trigonelline treatment with 1mM trigonelline chloride and experimental measurements were started at Day 1 of wild type N2 worm adulthood, in a regimen of chronic exposure till experiments termination.

C. elegans [6] = conditions: 1mM trigonelline chloride, day 8 old worms
Description: Absolute quantification of the mtDNA copy number in wild type N2 worms was performed by real-time PCR. Relative values for nduo-1, and act-1 were compared within each sample to generate a ratio representing the relative level of mitochondrial DNA per nuclear genome. The average of at least two technical repeats was used for each biological data point. Each experiment was performed on at least ten independent biological samples (individual worms). Trigonelline treatment with 1mM trigonelline chloride and experimental measurements were started at Day 1 of wild type N2 worm adulthood, in a regimen of chronic exposure till experiments termination.

C[n+]1cccc(C(=O)O)c1.[OH-] [chemically synthesized trigonelline]
NAD+ content compared to the control (Human primary myoblasts): significant increase
NAD+ content in the liver compared to the control (C57BL/6JRj male mice): significant increase

[2H]C([2H])([2H])[n+]1cccc([13C](=O)[O-])c1 [labelled trigonelline, reference compound]
relative abundance of labelled NAD+(M+1) (FIG. 2B) ([1]; labelled trigonelline 500pm, vs naturally occurring NAD+ in control): increase

C[n+]1cccc(C(=O)O)c1 [trigonelline chloride]
increase in lifespan (C. elegans [2]): 21%
distance travelled during spontaneous mobility assay vs control (C. elegans [3]; advanced aging phase): significantly increased
mean speed during spontaneous mobility assay vs control (C. elegans [3]; from day 1 adulthood): increased the mean speed
stimulated mobility score (worms responsive to a physical stimulus) (C. elegans [4]): more responsive to a physical stimulus than the control

C[n+]1cccc(C(=O)[O-])c1 [trigonelline, 1-methylpyridin-1-ium-3-carboxylate]
NAD+ relative concentration vs control (FIG. 2A) ([1]; HSMM from 2 donors, 500pm, LC-MS): enhancement
myofibrillar structure (GFP-tagged myosin) vs age matched control [5]: improved more organized myofibrillar structure
mitochondrial expression relative to nuclear expression (mt/nDNA, nduo-1/act-1) (C. elegans [6]): higher than in the control group
